A word on the melting point: it is the temperature, or range, at which the solid turns liquid.

The compound `Nc1ccc(C(=O)OCCOC(=O)C[C@@H](C(=O)O)n2c3ccccc3c3ccccc32)cc1` registered a melting point of 100 °C. As to `Nc1c(CC(=O)N2CCOCC2)cccc1C(=O)c1ccccc1`, the melting point was in the range of 156 to 158 °C. As for `O=C(O)c1cccc2c1CCc1cc(O)ccc1S2`, the figure is 210 to 211 °C; as for `O=S(=O)(Cc1n[nH]c(-c2ccco2)n1)c1ccccc1`, 185 to 186 °C; as for `CCCNC(=S)c1ccc2c(c1)N([C@H](C)CN1CCC[C@@H](C)C1)c1ccccc1S2` (racemic), 126 °C. The figure for `N#CC(C#N)=C1N(CCCN2CCc3ccccc3C2)CCN1CCN1CCCCC1` is 79 to 81 °C. Turning to `CCC(=O)NCCc1c[nH]c2ccc3c(c12)CCCO3`, the melting point was 106 to 107 °C. Consider `Nc1ncnc2c1c(-c1cc(O)cc(F)c1)nn2Cc1oc2ccccc2c(=O)c1-c1cccc(F)c1`, for which the melting point was in the range of 235 to 237 °C. With `COc1cc2c3ccc(OC)c(OC)c3n(S(C)(=O)=O)c2cc1OC`, the melting point fell in the range of 164 to 165 °C.

Regarding `CCC1(CC)C(=O)N(C(C)(C)C)CC(C)(C)N1C(C)c1ccc(OC(C)=O)cc1` (centres undefined), the melting point lay in the range of 92 to 96 °C.

`CCCCOC(=O)c1cccc(CCN(C)CCCC(C#N)(c2ccc(OC)c(OC)c2)C(C)C)c1` (centres undefined) had a melting point of 97 to 103 °C. The figure for `CCc1nc2cc(F)ccc2n1C1CC2CCC(C1)N2CCCSc1ccc(F)cc1` (centres undefined) is 127 to 128 °C. As for `COc1ccnc(CSc2nc3cc4c(cc3[nH]2)C(C)(C)C(=O)C4(C)C)c1C`, the figure is 218 to 220 °C. `COC(=O)c1cccc2c1Nc1ccc(I)cc1C2`: the melting point was 122 to 124 °C. For `O=C(NCC(=O)N1c2ccccc2N(Cc2ccccc2)C(=O)[C@H]2CCC[C@H]21)c1ccccc1` (relative stereo), the melting point is 201 to 203 °C. On to `CC(=O)NC[C@H]1CN(c2ccc3c(c2)CC(C)N3CCF)C(=O)O1` (some centres undefined), for which the melting point fell in the range of 127 to 130 °C.

`CC(=O)Nc1ccc(F)cc1C`: the melting point lay within 131 to 132 °C. `COC(=O)CC(C#N)Cc1ccc(Cl)cc1Cl` (centres undefined): the melting point was in the range of 86 to 88 °C. As for `CC(C)c1cc(N)c(S(N)(=O)=O)cc1S(N)(=O)=O`, the figure is 185 to 186 °C; as for `CC(=O)c1ccc(OCCN2CCN(c3cc(Cl)nnc3Cl)CC2)cc1`, 115 to 117 °C; as for `COC(CC(=O)c1ccc(Br)cc1)C(=O)c1ccc(Br)cc1` (centres undefined), 153 to 154 °C.

`COC(=O)C[C@H](NC(c1ccccc1)(c1ccccc1)c1ccccc1)C(=O)C(=[N+]=[N-])C(=O)N(C)OC` yielded a melting point of 130 to 131 °C. As for `COc1ccc2oc3ccc(I)cc3c2c1C(=O)Nc1ccncc1`, the figure is 255 to 257 °C. As for `CCCn1c(COCC)nc2c(N)nc3ccc(OCc4ccccc4)cc3c21`, the figure is 152 to 154 °C; as for `CC1(C)C=C(c2ccccn2)c2cc(C#N)ccc2OC1`, 155 to 157 °C; as for `NC(=O)CN1CC2C=CC1C2` (centres undefined), 74 to 96 °C. As for `COC(=O)c1cccc(CC(C)NCC(O)c2ccc(O)c(CO)c2)c1` (centres undefined), the figure is 60 to 70 °C; as for `FC(F)(F)c1cccc(CCc2nnc(-c3ccnc4[nH]ccc34)o2)c1`, 176 to 177 °C; as for `CCc1cc(=O)c(C(=O)OC)c(CC)[nH]1`, 124 to 127 °C. In turn, `O=C(O)C(CC1CCCC1)c1ccc(Cl)c(Cl)c1` (centres undefined) had a melting point of 74.5 to 76.9 °C. The figure for `CCCCCN1Cc2cccc(S(=O)(=O)NC(=O)Nc3nc(OC)cc(OC)n3)c2S1(=O)=O` is 197 to 203 °C. As for `CCN(CC)C(=O)CCc1nc(-c2ccccc2)nc2c(C)cccc12`, the figure is 80 °C; as for `CC(=O)C1=C(O)C(=C(C)Nc2ccccc2)C(=O)OC1=O`, 184 to 186 °C; as for `O=Cc1c[nH]c2c1ccc1c3cc(-c4ccc(C(F)(F)F)cc4)ccc3[nH]c12`, above 250 °C.

`COC(=O)c1ccccc1-c1nn[nH]n1` showed a melting point of 132 to 135 °C.

For the compound `COc1ccc2c(c1)CCC1C2CCC2(CC(C)C)C(O)CCC12` (centres undefined), the melting point was in the range of 103 to 104 °C. As for `CCC(CC)Nc1nc(C)nc(Nc2c(C)cc(C)nc2C)c1[N+](=O)[O-]`, the figure is 151 to 152 °C; as for `C=CCOc1ccc(C)c2c1C(=O)C1CCCCC21` (centres undefined), 106 to 107 °C. As for `O=C1CCC2C=C(c3cccnc3)C(O)=CC2N1` (centres undefined), the melting point is 298 °C.

`COc1ccc(C(CI)(OC)OC)cc1` gave a melting point of 54 to 55 °C. As for `CC(C)N1C(=S)NC(c2ccccc2)c2cc3c(cc21)OCO3` (centres undefined), the melting point was 214 to 218 °C. For the compound `COc1cccc(Cc2cc(OC)ccc2O)c1`, the melting point lay in the range of 116 to 118 °C. Compound `CC(=O)Oc1cc(C=CC(=O)c2ccccc2)cc([N+](=O)[O-])c1OC(C)=O` registered a melting point of 183 to 185 °C. `COc1ccc(CNc2n[nH]cc2C(=O)O)cc1OC1CCCC1`: the melting point was 134 to 136 °C. The figure for `Cc1c(-c2ccncc2)sc(-c2ccncc2)c1C(C)O` (centres undefined) is 155 to 157 °C; for `COc1ccc(C[C@](C)(N[C@@H](C(N)=O)c2ccccc2)C(N)=O)cc1` it is 106 to 108 °C. `Cc1ccc(-n2nc(C(C)(C)C)cc2NC(=O)c2cccc3cc(Oc4cc(Cl)ncn4)ccc23)cc1` gave a melting point of 163 to 164 °C. In the case of `CC(=O)Nc1nc(O)c2cc(C=Cc3ccc(C(=O)OC(C)=O)cc3)cnc2n1`, the melting point was above 300 °C. On to `COc1ccnc(CSc2nc3cc(OC(F)(F)C(F)F)ccc3[nH]2)c1OC`, for which the melting point was 98 to 102 °C. Regarding `COc1ccc(S(=O)(=O)N(CCC(N)=O)c2ccc(Cl)cc2Cc2c(F)cccc2F)cc1OC`, the melting point was found to be 189 °C. As to `COc1ccc2c(c1)N(c1ccc(F)cc1)C(=O)C2NC(=O)c1cc2ccccc2cn1` (centres undefined), the melting point lay in the range of 219 to 220 °C. In the case of `COCCc1nc2c(N)nc3ccccc3c2n1CCCNS(=O)(=O)c1ccc(C)cc1`, the melting point lay in the range of 189 to 191 °C. As for `CC(C)(Cl)C(CCN1C(=O)c2ccccc2C1=O)N=O` (centres undefined), the figure is 140 to 141 °C. With `CCCCc1nc2sc(C(=O)O)cc2n1Cc1ccc(-c2ccccc2C(=O)O)cc1`, the melting point was 264 °C. Take `c1cn2nc(N3CCOCC3)c3c(c2n1)CCCC3`: the melting point was in the range of 160 to 161 °C. The figure for `CCC(C(=O)Oc1cc(=O)n(-c2ccccc2)c2ncccc12)c1ccccc1` (centres undefined) is 166 to 168 °C; for `COc1ccc(N2CCN(CCC3OCCc4c(C(N)=O)cccc43)CC2)cc1` (centres undefined) it is 185 to 186 °C; for `Cc1ccc(C(=O)NCc2ccc(O)c3ncccc23)cc1` it is 137 to 139 °C. As for `COc1cc(Nc2ncc([N+](=O)[O-])c(-c3ccccc3)n2)cc(OC)c1OC`, the figure is 103 to 105 °C; as for `Cc1c(NC(=O)c2cccc(OCc3ccccc3)c2)ccc2cc(CN3CCCC3)cnc12`, 148 to 149 °C. The figure for `CCOC(=O)C1CC(O)CN1C(=O)c1ccc2c(c1)OCO2` (centres undefined) is 98 °C; for `COC(=O)CCCCCCCCCCCCCCCCCCCCCc1c(C)cc(OC)c(OC)c1O` it is 71 to 72.5 °C; for `CS(=O)(=O)Nc1ccc2nc(CCl)ccc2c1` it is 160 to 162 °C. Take `CC(C)(C1CCCCC1)C(NC(=O)c1ccc(Cl)cc1)NC(=N[N+](=O)[O-])Nc1cccnc1` (centres undefined): the melting point was 201 to 203 °C. Compound `O=S1(=O)c2ccccc2C=Cc2ccc(C=Nc3ccccc3)cc21` displayed a melting point of 184 to 185 °C. The figure for `CC(C)C(c1ccccc1N1CCCCC1)C(C(N)=O)c1ccc(C(=O)O)cc1` (centres undefined) is 215 to 217 °C; for `Cc1ncn(-c2ccc([N+](=O)[O-])cc2F)n1` it is 105 to 107 °C. As for `CCN(CC)C(=O)c1ccsc1-c1ccc(F)cc1`, the figure is 62 to 63 °C. As for `C=CCC=CCC=CCCCCCCCc1cccc(O)c1`, the figure is 60 °C; as for `CCC(CC)Oc1cc([N+](=O)[O-])ccc1N`, 62 to 63 °C. The compound `O=C(N[C@H](Cc1ccc(F)cc1)[C@@H](O)c1ccc(F)cc1)c1cccc2ccccc12` (racemic) gave a melting point of 199 to 200 °C.

In the case of `O=S(=O)(c1ccccc1)c1cc2cc(Cl)ccc2[nH]1`, the melting point lay within 137 to 138 °C. As to `Oc1cc2cc(C3CCCC3)sc2c(Cl)c1Cl`, the melting point was in the range of 62 to 63.5 °C.

The compound `CC(=O)N1CC(C)(C)c2cc3nc(-c4ccnnc4)[nH]c3cc21` registered a melting point of 225 to 260 °C.

For `Cc1c(C(=O)C2CSC(c3cccnc3)N2)c2ccccc2n1C(=O)N(C)C` (centres undefined), the melting point lay in the range of 130 to 132 °C. The figure for `CCOP(=O)(/C=C/c1cn(CCO)nc1OCc1ccc(OCc2nc(-c3ccco3)oc2C)c(OC)c1)OCC` is 95 to 96 °C; for `CN1C(=O)C2(COc3cc4c(cc32)OCCO4)c2c(NC(=O)C3CCCC3)cccc21` (centres undefined) it is 196 to 198 °C. As for `CCOC(=O)/C=C/c1cccc(-c2ccc(OCC)c(OC)c2)c1`, the figure is 89 to 91 °C.

Consider `O=C(O)c1cn(C2CC2)c2cc(N3CCC(c4ccccn4)C3)c(F)cc2c1=O` (centres undefined), for which the melting point fell in the range of 216 to 219 °C.

Regarding `COc1ccc(Cn2cnc3c(-c4ccco4)nc(C#C[Si](C)(C)C)nc32)cc1`, the melting point is 155 to 157 °C. As for `Cc1c(SCCCCl)ccnc1CSc1nc2cc(F)ccc2[nH]1`, the figure is 188 to 191 °C; as for `CN1Cc2c(Br)ncn2-c2cccc(Cl)c2C1=O`, 178 to 179 °C. As for `CCCCNc1nc2cnnc(Cl)c2cc1C(=O)OCC`, the figure is 127 °C. As for `O=C(Nc1ccccc1)c1cccc(NC(=S)Nc2cc(Cl)cc(Cl)c2)c1`, the figure is 174 to 177 °C; as for `COc1cc2c(cc1OC)CC(C(=O)O)C2`, 133 to 135 °C; as for `O=C(NC1CCN(CCc2ccc3ccccc3c2)CC1)c1ccccc1`, 189 to 191 °C. `Cc1ccc(NC(=O)c2cccnc2Oc2cccc(Cl)c2)cc1` showed a melting point of 140 to 143 °C. `CC1CCN2C(=O)c3ccccc3NC(=O)C12` (centres undefined): the melting point lay within 117 to 118 °C. Turning to `CC(C)OC(=O)Nc1c(C(O)(C(F)(F)F)C(F)(F)F)ccc2ccccc12`, the melting point was in the range of 139 to 141 °C.
